Patent publication US4006240A, “Alcohol aversion process by enzyme inhibition” (priority 1975, dated 1977)

Experiments:
[1] = Dose without significant effect on water or total fluid intake; conditions: mouse, in vivo, ip; intraperitoneal injection at 12 hourly intervals, read from dose graph; read-out: Dose which has no significant effect on water or total fluid intake
Text: The dose of the choline acetylase inhibitor when administered according to the present invention is selected to cause effective aversion to alcohol consumption. Effective aversion is intended to mean either the complete lack of compulsion to consume alcohol or at least a reduction of the compulsion to a point where the subject may consume alcohol in a strictly elective manner without being dependent thereon. The dose is also selected to be substantially free of undesirable side effects. By this is meant that the side effects are at most of a trivial nature and unimportant relative to the benefit derived from the treatment. One effect of excessive dosage with a choline acetylase inhibitor is a reduction in water consumption. […]
The dose of trans-4-[2-(1-naphthyl)vinyl]pyridine hydrochloride which has no significant effect on water or total fluid intake of these animals was determined to be 2 mg./kg. This was determined by intraperitoneal injection of trans-4-[2-(1-naphthyl)vinyl]pyridine hydrochloride at 12 hourly intervals during the test period at various dosage concentrations for various groups of mice. […]

[2] = test system: C57B1/6J mice; experiment: Ethanol aversion in C57B1/6J mice, free choice of water and 5% ethanol; type: in vivo, mouse; conditions: for 5% alcohol daily consumption: 2 mg./kg. i.p. at 12 hourly intervals; for 5% alcohol daily consumption / Water daily consumption: N = 8
Method: Adult male C57B1/6J mice weighing 20-25 g. were then placed into individual cages equipped with two small drinking tubes, one filled with water and the other with 5% ethanol in water. Food, water and alcohol solution were available ad libitum and the daily consumption of each was recorded at 10 a.m. The positions of the tubes were interchanged daily and different tubes were ocassionally substituted. After a period of 4 days to establish a reference base for alcohol and water consumption respectively, the animals were treated by intraperitoneal injection with 2 mg./kg. of body weight of trans-4-[2-(1-naphthyl)vinyl]-pyridine hydrochloride at 12 hourly intervals on the 5th and 6th days. Drug treatment was terminated on the 6th day and the animals were kept for an additional two days. The average values of water, 5% alcohol, and total fluid intake for each of these 8 days of the experiment are shown in the following table.

[3] = test system: rats trained on a conditioned avoidance procedure; conditions: 2.0 mg./kg. intraperitoneally, 3 hr. session; cited from earlier work
[4] = day 5, 2 mg./kg. i.p. at 12 hourly intervals
[5] = day 6, 2 mg./kg. i.p. at 12 hourly intervals

| Compound | NOAEL [1] | Alcohol consumption as share of the daily fluid intake on the days of drug treatment ([2]; 5th and 6th days, 2 mg./kg. i.p., about 65% without drug) | Total daily fluid intake during the experimental period ([2]; 8-day experiment, drug on days 5 and 6) | 5% alcohol daily consumption ([2]; day 5 (first treatment day)) | 5% alcohol as % of total daily fluid intake [2, 4] | Total daily fluid consumption [2, 4] | Water daily consumption [2, 4] | 5% alcohol daily consumption ([2]; day 6 (second treatment day)) | 5% alcohol as % of total daily fluid intake [2, 5] | Total daily fluid consumption [2, 5] | Water daily consumption [2, 5] | Water and alcohol intakes on cessation of drug treatment ([2]; days 7 and 8, after drug treatment ended) | Increase in the response rate [3] |
| --- | --- | --- | --- | --- | --- | --- | --- | --- | --- | --- | --- | --- | --- |
| C(=C\c1cccc2ccccc12)/c1ccncc1.Cl [N V P, trans-4-[2-(1-naphthyl)vinyl]pyridine hydrochloride] | 2 mg/kg | about 42% | remained substantially constant | 60 ± 2 mL/kg | 34% | 177 mL/kg | 117 ± 4 mL/kg | 82 ± 3 mL/kg | 43% | 193 mL/kg | 111 ± 4 mL/kg | returned substantially to their pretreatment values | – |
| CC(N)Cc1ccccc1 (stereo not shown) [amphetamine] | – | – | – | – | – | – | – | – | – | – | – | – | ~75% |
